Test [1] concerns the target T1, Nitric oxide synthase, inducible (Mus musculus, UniProt P29477).
T1 sequence (P29477 whole entry): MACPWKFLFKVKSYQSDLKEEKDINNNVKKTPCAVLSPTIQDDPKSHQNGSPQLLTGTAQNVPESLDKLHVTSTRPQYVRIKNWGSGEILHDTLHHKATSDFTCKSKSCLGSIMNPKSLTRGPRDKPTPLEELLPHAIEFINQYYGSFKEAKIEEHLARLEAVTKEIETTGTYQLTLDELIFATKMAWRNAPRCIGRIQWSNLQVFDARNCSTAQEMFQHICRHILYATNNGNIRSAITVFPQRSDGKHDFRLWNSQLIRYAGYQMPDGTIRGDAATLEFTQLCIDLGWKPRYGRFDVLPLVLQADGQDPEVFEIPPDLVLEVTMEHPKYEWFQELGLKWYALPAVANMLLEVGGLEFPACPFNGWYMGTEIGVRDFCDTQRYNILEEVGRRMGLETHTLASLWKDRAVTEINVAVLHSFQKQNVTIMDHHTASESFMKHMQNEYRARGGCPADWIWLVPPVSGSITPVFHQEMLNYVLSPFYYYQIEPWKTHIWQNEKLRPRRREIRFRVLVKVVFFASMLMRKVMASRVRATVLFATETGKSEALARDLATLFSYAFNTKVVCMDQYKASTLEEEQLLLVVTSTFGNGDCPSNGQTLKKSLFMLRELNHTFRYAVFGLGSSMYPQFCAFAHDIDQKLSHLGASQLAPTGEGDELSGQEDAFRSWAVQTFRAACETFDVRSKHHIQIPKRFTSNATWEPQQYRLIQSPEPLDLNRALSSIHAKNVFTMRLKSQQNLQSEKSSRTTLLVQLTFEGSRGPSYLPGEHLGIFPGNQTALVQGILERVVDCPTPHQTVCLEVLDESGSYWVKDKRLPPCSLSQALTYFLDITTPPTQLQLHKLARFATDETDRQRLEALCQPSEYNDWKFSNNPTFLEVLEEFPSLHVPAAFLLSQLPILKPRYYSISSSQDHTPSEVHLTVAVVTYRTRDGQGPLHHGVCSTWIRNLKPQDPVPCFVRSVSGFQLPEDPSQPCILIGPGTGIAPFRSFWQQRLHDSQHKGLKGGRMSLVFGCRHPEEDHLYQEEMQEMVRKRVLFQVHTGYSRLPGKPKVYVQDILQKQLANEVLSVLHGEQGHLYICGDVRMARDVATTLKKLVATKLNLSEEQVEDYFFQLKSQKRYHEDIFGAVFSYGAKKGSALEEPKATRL
Put plainly: The compound was tested for competitive antagonist of Nitric oxide synthase. The format is functional.

The target in test [2] is T2, Nitric oxide synthase, inducible (Mus musculus) (UniProt P29477).
T2 sequence (whole entry): T1 sequence (P29477 whole entry)
Description: Pseudo-first order inactivation rate constant against nitric oxide synthase was determined

For test [3], the target named is T1, Nitric oxide synthase, inducible. Put plainly: Compound was tested for competitive antagonist of Nitric oxide synthase. It is filed as functional.

Molecule `CC(=NO)NCCC[C@H](N)C(=O)O` yielded a Ki in test [1] of 37.7 µM.
Same read-out and setting: for `CC(=NO)NCCCC[C@H](N)C(=O)O` the value was 41.1 µM.
Turning to `CC(=N)NCCCC[C@H](N)C(=O)O` [L-NIL], in test [2], the kinact came to 0.35 min⁻¹. This molecule also gave a Ki in test [1] of 2.16 µM.
For `CC(=N)NCCC[C@H](N)C(=O)O` [L-NIO], the kinact in test [2] was 0.16 min⁻¹. Affinity in test [3] was put at a Ki of 1.42 µM.

(Values after ChEMBL document CHEMBL1132876, “Examination of N-hydroxylation as a prerequisite mechanism of nitric oxide synthase inactivation” (Bioorg Med Chem Lett, 2000).)
